# From patent publication EP4759817A1, “HETEROARYL COMPOUND, PREPARATION METHOD THEREFOR, AND USE THEREOF IN MEDICINE” (Jiangsu Hengrui Pharmaceuticals Co., Ltd., priority 2023, dated 2025)
# Target: T1, Recombinant human PRMT5: MEP50 protein (Homo sapiens, UniProt O14744)
# T1 construct: purchased active motif 31521
# Test: Inhibitory activity against human PRMT5 enzymatic activity (HTRF quantification of SAH, +MTA)
# Type: biochemical
# Settings: +1 µM MTA; histone H4 peptide substrate (1-21), SAM; 37°C 120 min
# Protocol: • 1. Recombinant human PRMT5: MEP50 protein (active motif, 31521) • 2. EPIgeneous Methyltransferase kit (cisbio, 62SAHPEH) • 3. 96-well plate (Sangon Biotech, F610960-0010) • 4. 384-well white plate (Perkin Elmer, 6007290) • 5. 1 M Tris-HCl [pH 8.5] (Sangon Biotech, B548141) • 6. Histone H4 peptide substrates (1-21) (BPS bioscience, 52014) • 7. 5'-deoxy-5'-(methylthio)adenosine (Aladdin, D168979-25 mg) • 8. Tween-20 (Sangon Biotech, A100777-0500) • 9. DMSO (Sigma, D2650) • 10. Incubator (Shanghai Boxun Medical Biological Instrument Corp.) • 11. PHERAstar FS microplate reader (BMG Labtech)
# PRMT5 can induce the transfer of a methyl group from S-adenosylmethionine (SAM) to a histone H4 peptide substrate (1-21), generating S-adenosylhomocysteine (SAH). In this experiment, the amount of SAH produced in the reaction is quantified using a Homogeneous Time-Resolved Fluorescence (HTRF) method to evaluate the inhibitory activity of compounds against PRMT5 enzymatic activity.
# The sample diluent containing (or not containing) 1 µM 5 '-deoxy-5' - (methylthiyl) adenosine (MTA) was prepared using the EPIgeneous Diluent Buffer from the EPIgeneous Methyltransferase kit. With reference to the instructions, SAM and SAH standards were serially diluted and dispensed at 10 µL per well (in duplicate for each concentration). 2 µL of EPIgeneous Detection Buffer 1 was added to each well, and the plate was centrifuged, shaken to mix thoroughly, and placed at room temperature for 10 min. The SAH d2 Reagent was diluted 32-fold with EPIgeneous Detection Buffer 2, and 4 µL of the diluted SAH-d2 solution was added to each well. The plate was centrifuged and shaken for 2 min to mix thoroughly. The SAH Tb Cryptate Antibody was diluted 50-fold in EPIgeneous Detection Buffer 2. 4 µL of the diluted Tb Cryptate Antibody solution was added to each well, and the plate was centrifuged, shaken for 2 min to mix thoroughly, and left to stand at room temperature for 60 min, followed by reading on a PHERAstar FS microplate reader to obtain the 665/620 ratio. Plotting SAH concentration against the ratio to generate an x-y curve yields a corresponding calculation formula.
# Reaction buffer (1×): 50 mM Tris-HCl [pH 8.5], 1 mM DTT, 0.005% Tween-20.
# Compound preparation: a 20 mM solution of test compound in 100% DMSO was diluted in 100% DMSO to 1 mM as the highest concentration, and the solution at this concentration was then subjected to a 10-point, 3-fold serial dilution in 100% DMSO in a 96-well plate. Wells containing 100% DMSO served as the blank control. The above-described serially diluted compounds and the 100% DMSO were diluted 20-fold with the reaction buffer to prepare 5× compound solutions, which were mixed thoroughly for use.
# The PRMT5:MEP50 was diluted in the reaction buffer to a final concentration of 12.5 nM. Then, 4 µL of the 12.5 nM PRMT5:MEP50 solution was added to each well of a 384-well plate. Wells containing 4 µL of the reaction buffer served as the negative control wells. 2 µL of the 5× compound solution was added to each well. For the negative control wells (no enzyme, no compound) and the positive control wells (no compound), 2 µL of 5% DMSO was added. The plate was sealed with a membrane, centrifuged, shaken for 2 min to mix thoroughly, and placed at room temperature for 20 min.
# Preparation of substrate mixture solution: The substrate mixture solution containing 1.5 µM histone H4 peptide substrate (1-21) and 2.5 µM SAM, or 1.5 µM histone H4 peptide substrate (1-21), 2.5 µM SAM and 2.5 µM MTA was prepared in the reaction buffer.
# The reaction was initiated by adding 4 µL of the substrate mixture solution (-/+ MTA) to each well. The plate was sealed with a membrane, centrifuged, shaken for 2 min to mix thoroughly, and incubated at 37°C for 120 min in a constant temperature incubator.
# Detection: The detection was performed by using the EPIgeneous Methyltransferase kit. […]
# T1 sequence (O14744 whole entry): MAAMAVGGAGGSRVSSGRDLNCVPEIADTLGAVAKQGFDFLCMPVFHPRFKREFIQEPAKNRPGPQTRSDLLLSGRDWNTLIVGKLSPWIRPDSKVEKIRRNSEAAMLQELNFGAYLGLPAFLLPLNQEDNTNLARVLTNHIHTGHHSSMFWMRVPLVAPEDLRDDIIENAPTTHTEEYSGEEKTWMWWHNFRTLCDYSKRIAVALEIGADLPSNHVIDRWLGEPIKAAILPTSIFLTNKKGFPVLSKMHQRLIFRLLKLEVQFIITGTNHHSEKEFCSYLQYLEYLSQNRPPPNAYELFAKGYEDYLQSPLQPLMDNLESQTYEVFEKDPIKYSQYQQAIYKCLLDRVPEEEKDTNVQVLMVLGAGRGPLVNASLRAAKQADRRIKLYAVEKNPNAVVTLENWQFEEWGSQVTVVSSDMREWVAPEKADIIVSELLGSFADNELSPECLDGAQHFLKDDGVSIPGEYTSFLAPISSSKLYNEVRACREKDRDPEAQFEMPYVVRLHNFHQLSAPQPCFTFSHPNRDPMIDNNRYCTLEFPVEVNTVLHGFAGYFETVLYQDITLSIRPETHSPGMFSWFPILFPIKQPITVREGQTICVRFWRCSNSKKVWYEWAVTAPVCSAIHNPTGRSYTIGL
# T1 sequence (Q9BQA1 whole entry partner): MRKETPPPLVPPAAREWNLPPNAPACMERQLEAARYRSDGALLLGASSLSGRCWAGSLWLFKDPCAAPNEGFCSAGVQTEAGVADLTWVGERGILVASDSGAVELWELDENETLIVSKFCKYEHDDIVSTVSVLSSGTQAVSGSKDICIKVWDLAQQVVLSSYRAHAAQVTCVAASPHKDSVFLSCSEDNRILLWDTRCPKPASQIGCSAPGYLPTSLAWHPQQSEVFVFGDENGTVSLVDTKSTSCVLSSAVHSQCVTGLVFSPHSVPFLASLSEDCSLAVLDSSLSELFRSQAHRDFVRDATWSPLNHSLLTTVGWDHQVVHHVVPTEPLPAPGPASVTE
row,SMILES,IC50
1,"Cn1ncc(-c2ccc3c(=O)[nH]nc(CN)c3c2)c1-c1c(F)cc2c(c1C#N)O[C@H]1CC[C@H]1O2 (atropisomer, axis not shown; (M)) [Compound 1-p1, (M)-(2aS,8aR)-5-(4-(4-(aminomethyl)-1-oxo-1,2-dihydrophthalazin-6-yl)-1-methyl-1H-pyrazol-5-yl)-6-fluoro-1,2,2a,8a-tetrahydrobenzo[b]cyclobuta[e][1,4]dioxine-4-carbonitrile]",4.91 nM
2,"[2H]C([2H])([2H])n1ncc(-c2ccc3c(=O)[nH]nc(CN)c3c2)c1-c1c(F)cc2c(c1C#N)O[C@H]1CC[C@H]1O2 (single isomer, unassigned) [Compound 2-p1]",5.23 nM
3,"[2H]C([2H])([2H])n1ncc(-c2ccc3c(=O)[nH]nc(CN)c3c2)c1-c1c(F)cc2c(c1C#N)N1CCC[C@H]1CO2 (single isomer, unassigned) [Compound 8-p1]",5.19 nM
